Reference: paper PMC7365090, “In crystallo-screening for discovery of human norovirus 3C-like protease inhibitors” (Journal of Structural Biology: X, 2020)
Like-named read-outs stand apart in the source and are kept apart here.

Target: T1, SV3CP (Southampton norovirus 3CL^pro) (Southampton virus (serotype 3), UniProt Q04544)
T1 construct: gene ORF1; mature 3C-like protease (NS6) cut from the ORF1 non-structural polyprotein; purified as in Hussey et al. 2011; mass 19,290 Da (intact); dimer in asymmetric unit, putative crystallographic tetramer
T1 sequence (Q04544 1100-1280): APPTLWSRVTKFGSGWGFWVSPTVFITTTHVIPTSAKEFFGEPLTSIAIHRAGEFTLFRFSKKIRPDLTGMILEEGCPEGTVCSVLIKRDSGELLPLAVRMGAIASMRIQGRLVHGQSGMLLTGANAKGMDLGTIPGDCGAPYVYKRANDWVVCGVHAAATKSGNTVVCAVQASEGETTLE
Experiment: chromogenic protease assay, […] nm
Type: biochemical

| SMILES | Ki (read-out: Ki) [µM] | Ki [µM] |
| --- | --- | --- |
| Cc1ccc(CNc2cccc(C(=O)O)c2)s1 [J01] | 370 | – |
| O=C(O)c1csc(-c2ccc(C(F)(F)F)cc2)n1 [J02] | – | 340 |
